Assay results as given in patent US8637679B2, “Process for the isolation of organic compounds useful for the treatment of cancer” (Council of Scientific and Industrial Research, priority 2011, dated 2014).

How the values were obtained:
LN229 = assay: MTT cell viability assay, LN229; type: cell-based, human; conditions: Homo sapiens, LN-229; LN229, 48 hrs
Description: (§1) Human cervical cancer cell lines (HeLa, ME-180 and SiHa), brain tumor cell lines (U87MG, U373MG, U87MG EGFRvIII, T98G, A172 and LN229), lymphoid leukemia (MOLT-3, MOLT-4, REH and CEMC-7), myloid leukemia (K562), pancreatic cancer (MIAPaCa-2, AsPC-1, Panc-1 and Panc 10.05), lung cancer (A549) and colon cancer (HCT116 and SW480) cell lines from American Type Culture Collection, Manassas, Va., USA were grown in IMDM or RPMI (cell specific) Medium supplemented with 10% fetal bovine serum and 1% antibiotic-antimycotic. Cells were cultured in 37° C. in an atmosphere of 5% CO2.
(§2) Viability of cancer cell lines after treatment as at the indicated times was determined by MTT assay. Briefly, 10,000 cells were plated in triplicate in 96 well plates and incubated for 24 and 48 hours in complete media in presence of varying dose of mahanine (0-50 μM). 100 ug MTT was added in each well. Incubate the plate for 1-4 hours at 37° C. and humidified 5% CO2 atmosphere. Absorbance was recorded at 550 nm with 96 well plate readers.

A172 = assay: MTT cell viability assay, A172; type: cell-based, human; conditions: Homo sapiens, A 172; A172, 48 hrs
Description: as §1, §2

Panc10.05 = assay: MTT cell viability assay, Panc10.05; type: cell-based, human; conditions: Homo sapiens, Panc1005; Panc10.05, 48 hrs
Description: as §1, §2

CEM C7 = assay: MTT cell viability assay, CEM C7; type: cell-based, human; conditions: Homo sapiens; CEM C7, 48 hrs
Description: as §1, §2

[1] = system: orthotopic pancreatic tumour; assay: Orthotopic pancreatic tumour model; type: in vivo; conditions: athymic nude mice
human Hsp90 = assay: Surface plasmon resonance binding to immobilized Hsp90; conditions: SPR, Hsp90-mahanine complex
Description: The portion of the sensorgram which corresponds to the dissociation of mahanine from Hsp90 was analyzed by the BIA evaluation program 2.1 to obtain the dissociation rate (kd) (FIG. 22). The experimental data fits well with the single exponential kinetic model used. Some experiments were repeated at a flow rate of 5 μl/min to check the effect of possible rebinding. Rebinding and mass transfer limitation was also checked by the repetition of the experiments at lower levels of immobilized Hsp90. […] Using the corresponding kd values nonlinear curve fitting of the association phase of the corresponding sensorgram was carried out with the BIA evaluation program 2.1 to obtain association rate (ka).
All the solutions were passed through a 0.22 micron Millipore filter and de-gassed in vacuum for 6-7 minutes at room temperature. For coupling Hsp90 to the SPR sensor chips, 400 μl (50 μg/ml) human Hsp90 was dialysed over night at 4° C. against coupling buffer containing 5 mM Na2HPO4, pH 7.4 and 150 mM NaCl to remove Tris, which interferes with the coupling. Before coupling, carboxymethyl-dextran sensor chips (CM5, Lot 1170768, Biacore, Upsala Sweden) were incubated with running buffer containing 10 mM HEPES, pH 7.4, 0.15 M KCl and 0.001% Tween-20 to prevent the unspecific binding of proteins to the capillaries in a BIAcore apparatus for 10 minutes at 25° C. at a flow rate of 5 μl/min. […]

[2] = system: intracellular Ca2+ in MIAPaCa-2; assay: Intracellular Ca2+ measurement (Fluo-3/AM); type: cell-based, human; conditions: MIAPaCa-2, with and without extra-cellular Ca2+
Description: MIAPaCa-2 cells (3×10^6), treated with mahanine, were washed in 1× Hanks Balanced Salt Solution (HBSS) [Gibco, Invitrogen Corporation, USA] and then loaded with Fluo-3/AM (2 μM, Calbiochem, Germany) in HBSS containing 1.26 mM CaCl2. The cells were incubated at 37° C. for 30 min in dark with gentle agitation. All extracellular Fluo-3/AM was removed by two-three times washing in aforesaid buffer. The level of cytoplasmic Ca^2+ within Fluo-3/AM loaded MIAPaCa-2 was determined in time dependent manner in the absence and presence of CaCl2 (1.26 mM CaCl2).

In the case of `CC(C)=CCCC1(C)C=Cc2c(c(C)cc3c2[nH]c2cc(O)ccc23)O1` (stereo not shown) [Mahanine, mahanine], the IC50 (LN229) is reported as 13.7 ± 0.3 µM, the IC50 (A172) is reported as 11.6 ± 1 µM and the IC50 (Panc10.05) is reported as 18.5 ± 1.6 µM. For the same compound, the IC50 (CEM C7) was 10.2 ± 0.1 µM, the “orthotopic pancreatic tumour growth” value [1] was “tumour growth inhibition” and the “Dissociation constant (KD) (kd/ka)” value (human Hsp90) was 4.99 µM. For the same compound, the “time to maximum enhancement of intracellular Ca2+ pool” value [2] was no more than 15 min.
